According to patent US9556179B2 (BRISTOL-MYERS SQUIBB COMPANY, priority 2012, dated 2017):

How the values were obtained:
[1] = target: CK1δ (Homo sapiens (Human), UniProt P48730); assay: CK1δ kinase assay (Caliper LABCHIP electrophoretic separation of fluoresceinated peptide substrate and product); format: biochemical; details: 200 pM enzyme, 50 μM ATP, 22 hours at room temperature
Procedure: (§1) CK1ε and CK1δ Kinase Assays
(§2) The kinase assay was performed in V-bottom 384-well plates. […] The reaction was incubated at room temperature for 22 hours and terminated by adding 45 μl of 35 mM EDTA to each sample. The reaction mixture was analyzed on the Caliper LABCHIP®3000 (Caliper, Hopkinton, Mass.) by electrophoretic separation of the unphosphorylated substrate and phosphorylated product. […] Compounds were dissolved at 10 mM in dimethylsulfoxide (DMSO) and evaluated at eleven concentrations. IC50 values were derived by non-linear regression analysis.

[2] = target: CK1ε (Homo sapiens (Human), UniProt P49674); assay: CK1ε kinase assay (Caliper LABCHIP electrophoretic separation of fluoresceinated peptide substrate and product); format: biochemical; details: 200 pM enzyme, 50 μM ATP, 22 hours at room temperature
Procedure: as §1, §2

Sequence of CK1ε (P49674 whole entry): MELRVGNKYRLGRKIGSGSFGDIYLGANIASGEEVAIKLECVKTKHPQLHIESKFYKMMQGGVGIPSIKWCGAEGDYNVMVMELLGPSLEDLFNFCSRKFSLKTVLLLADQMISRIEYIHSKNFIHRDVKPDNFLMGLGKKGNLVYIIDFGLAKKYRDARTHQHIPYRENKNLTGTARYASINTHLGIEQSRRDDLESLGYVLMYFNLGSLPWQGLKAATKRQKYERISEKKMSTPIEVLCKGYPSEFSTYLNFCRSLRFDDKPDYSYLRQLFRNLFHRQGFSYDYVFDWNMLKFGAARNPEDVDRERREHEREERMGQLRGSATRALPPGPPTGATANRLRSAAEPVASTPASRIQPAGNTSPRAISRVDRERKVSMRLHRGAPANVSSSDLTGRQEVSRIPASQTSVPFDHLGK
Sequence of CK1δ (P48730 whole entry): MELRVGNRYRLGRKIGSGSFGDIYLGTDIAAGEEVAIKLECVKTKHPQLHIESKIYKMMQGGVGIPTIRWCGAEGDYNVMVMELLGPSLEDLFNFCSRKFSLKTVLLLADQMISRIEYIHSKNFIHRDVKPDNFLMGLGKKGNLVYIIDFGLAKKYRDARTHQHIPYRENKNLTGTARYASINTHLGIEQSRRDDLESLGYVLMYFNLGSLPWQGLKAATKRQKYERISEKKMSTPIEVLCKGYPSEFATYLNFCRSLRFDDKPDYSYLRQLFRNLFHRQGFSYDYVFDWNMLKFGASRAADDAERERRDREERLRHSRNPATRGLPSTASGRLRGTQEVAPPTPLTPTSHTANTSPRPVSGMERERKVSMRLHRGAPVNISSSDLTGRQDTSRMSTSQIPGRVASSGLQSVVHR

CN1CCC(n2cnc(-c3ccc(F)cc3)c2-c2ccc3nc(NC(=O)c4ccncc4)cn3n2)CC1 [Compound 2]
IC50 [1]: 2.54 nM
IC50 [2]: 2.46 nM

O=C(Nc1cn2nc(-c3c(-c4ccc(F)cc4)ncn3C3CCN(Cc4ccon4)CC3)ccc2n1)c1ccncc1 [Compound 3, N-(6-(4-(4-fluorophenyl)-1-(1-(isoxazol-3-ylmethyl)piperidin-4-yl)-1H-imidazol-5-yl)imidazo[1,2-b]pyridazin-2-yl)isonicotinamide]
IC50 [1]: 0.306 nM
IC50 [2]: 0.298 nM

O=C(Nc1cn2nc(-c3c(-c4ccc(F)cc4)ncn3C3CCN(CCC(F)(F)F)CC3)ccc2n1)c1ccncc1 [Compound 4, N-(6-(4-(4-fluorophenyl)-1-(1-(3,3,3-trifluoropropyl)piperidin-4-yl)-1H-imidazol-5-yl)imidazo[1,2-b]pyridazin-2-yl)isonicotinamide]
IC50 [1]: 0.302 nM
IC50 [2]: 2.25 nM

O=C(Nc1cn2nc(-c3c(-c4ccc(F)cc4)ncn3C3CCN(C(=O)c4ccon4)CC3)ccc2n1)c1ccncc1 [Compound 5, N-(6-(4-(4-fluorophenyl)-1-(1-(isoxazole-3-carbonyl)piperidin-4-yl)-1H-imidazol-5-yl)imidazo[1,2-b]pyridazin-2-yl)isonicotinamide]
IC50 [1]: 0.379 nM
IC50 [2]: 1.42 nM

O=C(Nc1cn2nc(-c3c(-c4ccc(F)cc4)ncn3C3CCN(C(=O)CC(F)(F)F)CC3)ccc2n1)c1ccncc1 [Compound 6, N-(6-(4-(4-fluorophenyl)-1-(1-(3,3,3-trifluoropropanoyl)piperidin-4-yl)-1H-imidazol-5-yl)imidazo[1,2-b]pyridazin-2-yl)isonicotinamide]
IC50 [1]: 0.264 nM
IC50 [2]: 1.17 nM

O=C(Nc1cn2nc(-c3c(-c4ccc(F)cc4)ncn3C3CCNCC3)ccc2n1)c1ccnc(F)c1 [Compound 9, 2-fluoro-N-(6-(4-(4-fluorophenyl)-1-(piperidin-4-yl)-1H-imidazol-5-yl)imidazo[1,2-b]pyridazin-2-yl)isonicotinamide]
IC50 [1]: 0.92 nM
IC50 [2]: 0.681 nM

O=C(Nc1cn2nc(-c3c(-c4ccc(F)cc4)ncn3C3CCN(CCC(F)(F)F)CC3)ccc2n1)c1ccnc(F)c1 [Compound 10, 2-fluoro-N-(6-(4-(4-fluorophenyl)-1-(1-(3,3,3-trifluoropropyl)piperidin-4-yl)-1H-imidazol-5-yl)imidazo[1,2-b]pyridazin-2-yl)isonicotinamide]
IC50 [1]: 0.847 nM
IC50 [2]: 2.27 nM

CN1CCC(n2cnc(-c3ccc(F)cc3)c2-c2ccc3nc(NC(=O)c4ccnc(F)c4)cn3n2)CC1 [Compound 11]
IC50 [1]: 0.847 nM
IC50 [2]: 0.654 nM

O=C(Nc1cn2nc(-c3c(-c4ccc(F)cc4)ncn3C3CCN(Cc4ccon4)CC3)ccc2n1)c1ccnc(F)c1 [Compound 12]
IC50 [1]: 0.847 nM
IC50 [2]: 0.283 nM

O=C(Nc1cn2nc(-c3c(-c4ccc(F)cc4)ncn3C3CCN(CCO)CC3)ccc2n1)c1ccnc(F)c1 [Compound 13, 2-fluoro-N-(6-(4-(4-fluorophenyl)-1-(1-(2-hydroxyethyl)piperidin-4-yl)-1H-imidazol-5-yl)imidazo[1,2-b]pyridazin-2-yl)isonicotinamide]
IC50 [1]: 0.214 nM
IC50 [2]: 0.61 nM

O=C(Nc1cn2nc(-c3c(-c4ccc(F)cc4)ncn3C3CCN(C(=O)c4cnon4)CC3)ccc2n1)c1ccnc(F)c1 [Compound 14, N-(6-(1-(1-(1,2,5-oxadiazole-3-carbonyl)piperidin-4-yl)-4-(4-fluorophenyl)-1H-imidazol-5-yl)imidazo[1,2-b]pyridazin-2-yl)-2-fuoroisonicotinamide]
IC50 [1]: 0.624 nM
IC50 [2]: 3.91 nM

O=C(Nc1cn2nc(-c3c(-c4ccc(F)cc4)ncn3C3CCN(Cc4ccc(F)cc4)CC3)ccc2n1)c1ccnc(F)c1 [Compound 15, 2-fluoro-N-(6-(1-(1-(4-fluorobenzyI)piperidin-4-yl)-4-(4-fluorophenyl)-1H-imidazol-5-yl)imidazo[1,2-b]pyridazin-2-yl)isonicotinamide]
IC50 [1]: 0.215 nM
IC50 [2]: 14.1 nM

O=C(Nc1cn2nc(-c3c(-c4ccc(F)cc4)ncn3C3CCN(Cc4ccncc4)CC3)ccc2n1)c1ccnc(F)c1 [Compound 16, 2-fluoro-N-(6-(4-(4-fluorophenyl)-1-(1-(pyridin-4-ylmethyl)piperidin-4-yl)-1H-imidazol-5-yl)imidazo[1,2-b]pyridazin-2-yl)isonicotinamide]
IC50 [1]: 0.295 nM
IC50 [2]: 3.06 nM

O=C(Nc1cn2nc(-c3c(-c4ccc(F)cc4)ncn3C3CCN(Cc4cocn4)CC3)ccc2n1)c1ccnc(F)c1 [Compound 17, 2-fluoro-N-(6-(4-(4-fluorophenyl)-1-(1-(oxazol-4-ylmethyl)piperidin-4-yl)-1H-imidazol-5-yl)imidazo[1,2-b]pyridazin-2-yl)isonicotinamide]
IC50 [1]: 2.14 nM
IC50 [2]: 21.8 nM

O=C(Nc1cn2nc(-c3c(-c4ccc(F)cc4)ncn3C3CCN(Cc4ncc[nH]4)CC3)ccc2n1)c1ccnc(F)c1 [Compound 18, N-(6-(1-(1-((1H-imidazol-2-yl)methyl)piperidin-4-yl)-4-(4-fluorophenyl)-1H-imidazol-5-yl)imidazo[1,2-b]pyridazin-2-yl)-2-fluoroisonicotinamide]
IC50 [1]: 0.259 nM
IC50 [2]: 0.599 nM

O=C(Nc1cn2nc(-c3c(-c4ccc(F)cc4)ncn3C3CCN(Cc4cc[nH]n4)CC3)ccc2n1)c1ccnc(F)c1 [Compound 20, N-(6-(1-(1-((1H-pyrazol-3-yl)methyl)piperidin-4-yl)-4-(4-fluorophenyl)-1H-imidazol-5-yl)imidazo[1,2-b]pyridazin-2-yl)-2-fluoroisonicotinamide]
IC50 [1]: 0.28 nM
IC50 [2]: 1.78 nM

Cc1nn(C)cc1CN1CCC(n2cnc(-c3ccc(F)cc3)c2-c2ccc3nc(NC(=O)c4ccnc(F)c4)cn3n2)CC1 [Compound 21]
IC50 [1]: 0.17 nM
IC50 [2]: 5.56 nM

O=C(Nc1cn2nc(-c3c(-c4ccc(F)cc4)ncn3C3CCN(Cc4c[nH]cn4)CC3)ccc2n1)c1ccnc(F)c1 [Compound 22]
IC50 [1]: 0.101 nM
IC50 [2]: 1.29 nM

O=C(Nc1cn2nc(-c3c(-c4ccc(F)cc4)ncn3C3CCN(CCN4CCOCC4)CC3)ccc2n1)c1ccnc(F)c1 [Compound 23, 2-fluoro-N-(6-(4-(4-fluorophenyl)-1-(1-(2-morpholinoethyl)piperidin-4-yl)-1H-imidazol-5-yl)imidazo[1,2-b]pyridazin-2-yl)isonicotinamide]
IC50 [1]: 0.183 nM
IC50 [2]: 0.675 nM

CSCCCN1CCC(n2cnc(-c3ccc(F)cc3)c2-c2ccc3nc(NC(=O)c4ccnc(F)c4)cn3n2)CC1 [Compound 26, 2-fluoro-N-(6-(4-(4-fluorophenyl)-1-(1-(3-(methylthio)propyl)piperidin-4-yl)-1H-imidazol-5-yl)imidazo[1,2-b]pyridazin-2-yl)isonicotinamide]
IC50 [1]: 0.449 nM
IC50 [2]: 2.23 nM

Cn1ccnc1CN1CCC(n2cnc(-c3ccc(F)cc3)c2-c2ccc3nc(NC(=O)c4ccnc(F)c4)cn3n2)CC1 [Compound 27, 2-fluoro-N-(6-(4-(4-fluorophenyl)-1-(1-((1-methyl-1H-imidazol-2-yl)methyl)piperidin-4-yl)-1H-imidazol-5-yl)imidazol[1,2-b]pyridazin-2-yl)isonicotinamide]
IC50 [1]: 0.265 nM
IC50 [2]: 1.13 nM

O=C(Nc1cn2nc(-c3c(-c4ccc(F)cc4)ncn3C3CCN(CC4CC4)CC3)ccc2n1)c1ccnc(F)c1 [Compound 28, N-(6-(1-(1-(cyclopropylmethyl)piperidin-4-yl)-4-(4-fluorophenyl)-1H-imidazol-5-yl)imidazo[1,2-6]pyridazin-2-yl)-2-fluoroisonicotinamide]
IC50 [1]: 0.207 nM
IC50 [2]: 1.27 nM

O=C(Nc1cn2nc(-c3c(-c4ccc(F)cc4)ncn3C3CCN(CC4C[C@@H]5CC[C@H]4C5)CC3)ccc2n1)c1ccnc(F)c1 (stereo partly drawn) [Compound 31, N-(6-(1-(1-((1S,4R)-bicyclo[2.2.1]heptan-2-ylmethyl)piperidin-4-yl)-4-(4-fluorophenyl)-1H-imidazol-5-yl)imidazo[1,2-6]pyridazin-2-yl)-2-fluoroisonicotinamide]
IC50 [1]: 0.742 nM
IC50 [2]: 11.2 nM

CC(C)CCN1CCC(n2cnc(-c3ccc(F)cc3)c2-c2ccc3nc(NC(=O)c4ccnc(F)c4)cn3n2)CC1 [Compound 32, 2-fluoro-N-(6-(4-(4-fluorophenyl)-1-(1-isopentylpiperidin-4-yl)-1H-imidazol-5-yl)imidazo[1,2-b]pyridazin-2-yl)isonicotinamide]
IC50 [1]: 0.602 nM
IC50 [2]: 10.7 nM

O=C(Nc1cn2nc(-c3c(-c4ccc(F)cc4)ncn3C3CCN(C(=O)C4CCC4)CC3)ccc2n1)c1ccnc(F)c1 [Compound 68, N-(6-(1-(1-(cyclobutanecarbonyl)piperidin-4-yl)-4-(4-fluorophenyl)-1H-imidazol-5-yl)imidazo[1,2-b]pyridazin-2-yl)-2-fluoroisonicotinamide]
IC50 [1]: 0.193 nM

O=C(Nc1cn2nc(-c3c(-c4ccc(F)cc4)nc4ccccn34)ccc2n1)C1CC1 [Compound 185, N-(6-(2-(4-fluorophenyl)imidazo[1,2-a]pyridin-3-yl)imidazo[1,2-b]pyridazin-2-yl)cyclopropanecarboxamide]
IC50 [1]: 3.8 nM

O=C(Nc1cn2nc(-c3c(-c4ccc(Cl)cc4)ncn3CC(F)F)ccc2n1)c1ccnc(F)c1 [Compound 244, N-(6-(4-(4-chlorophenyl)-1-(2,2-difluoroethyl)-1H-imidazol-5-yl)imidazo[1,2-b]pyridazin-2-yl)-2-fluoroisonicotinamide]
IC50 [1]: 0.204 nM

Cc1nc(-c2ccc(F)cc2)c(-c2ccc3nc(NC(=O)C(=O)c4ccccc4)cn3n2)n1C [Compound 317, N-(6-(4-(4-fluorophenyl)-1,2-dimethyl-1H-imidazol-5-yl)imidazo[1,2-b]pyridazin-2-yl)-2-oxo-2-phenylacetamide]
IC50 [1]: 1.21 nM
